The target in this test is T1, Cbl-B (Homo sapiens, UniProt Q13191).
T1 construct: MSD-Based Assay for Degradation of Cbl-B in THP-1 Cells; endogenous in cells; host or cells: THP-1 (title) / Jurkat (protocol text)
Description: MSD-based assay for degradation of Cbl-B in THP-1 cells. Format: cell-based. A digest of the protocol: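 Reported Dmax bins are A >70%, B 50–70%, C 30–50% and D <30%, from an electrochemiluminescence (MSD) sandwich assay of Cbl-B in cell lysates. THP-1 cells were exposed to compounds for 24 hours before lysis.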

[1] abbreviates: Cbl-B degradation, Jurkat cells seeded (heading: THP-1 cells), 24 hours incubation, MSD readout.
Setting [2] is: Cbl-B degradation, Jurkat cells seeded (heading: THP-1 cells), 24 hours incubation, MSD readout, read-out: Dmax.

The structures appear in SMILES notation. Where two headings read alike, the source gives them in different places.

T1 sequence (Q13191 whole entry): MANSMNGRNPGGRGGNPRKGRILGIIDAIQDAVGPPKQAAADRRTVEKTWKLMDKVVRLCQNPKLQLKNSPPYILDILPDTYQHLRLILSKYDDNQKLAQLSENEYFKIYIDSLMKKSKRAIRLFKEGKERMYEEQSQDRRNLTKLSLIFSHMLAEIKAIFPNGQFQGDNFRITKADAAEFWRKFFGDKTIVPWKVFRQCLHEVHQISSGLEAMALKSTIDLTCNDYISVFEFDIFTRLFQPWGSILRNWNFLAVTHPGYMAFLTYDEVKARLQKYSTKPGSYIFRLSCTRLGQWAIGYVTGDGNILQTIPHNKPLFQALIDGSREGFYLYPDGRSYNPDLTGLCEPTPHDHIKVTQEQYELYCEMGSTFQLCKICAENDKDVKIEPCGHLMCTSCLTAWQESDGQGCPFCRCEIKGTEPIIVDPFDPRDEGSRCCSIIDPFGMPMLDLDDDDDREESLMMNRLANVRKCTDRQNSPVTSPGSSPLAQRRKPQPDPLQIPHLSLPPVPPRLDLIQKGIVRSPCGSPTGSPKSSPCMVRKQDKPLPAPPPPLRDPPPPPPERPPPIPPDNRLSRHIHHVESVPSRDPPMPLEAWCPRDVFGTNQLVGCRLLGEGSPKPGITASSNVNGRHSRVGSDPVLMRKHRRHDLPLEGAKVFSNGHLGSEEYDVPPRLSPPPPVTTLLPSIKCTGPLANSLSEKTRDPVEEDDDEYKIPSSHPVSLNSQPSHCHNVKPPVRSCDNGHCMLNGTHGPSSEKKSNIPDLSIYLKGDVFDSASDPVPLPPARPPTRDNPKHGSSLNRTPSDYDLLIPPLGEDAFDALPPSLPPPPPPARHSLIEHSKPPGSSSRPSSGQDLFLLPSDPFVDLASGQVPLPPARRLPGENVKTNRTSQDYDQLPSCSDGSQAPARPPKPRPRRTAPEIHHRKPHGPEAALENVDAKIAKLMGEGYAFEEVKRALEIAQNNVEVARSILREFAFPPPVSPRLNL

For `Cn1cnnc1[C@@H](c1cccc(-n2cc3c(C(F)(F)F)cc(CN4CCN(c5ccc(C(=O)N6CCC(C7CCN(c8ccc9c(c8)CN([C@@H]8CCC(=O)NC8=O)C9=O)CC7)CC6)cc5)CC4)cn3c2=O)c1)C1CCC1` (single isomer, unassigned) [Compound 209], the DC50 (as a rule, the concentration at which degradation of the target reaches its halfway point) under setting [1] is 1 to 10 µM. The Dmax (in general, the greatest extent of degradation seen) under setting [2] is < 30%.

Regarding `Cn1cnnc1[C@@H](c1cccc(-n2cc3c(C(F)(F)F)cc(CN4CCN(c5ccc(C(=O)N6CCC(C7CCN(c8ccc9c(c8)CN([C@H]8CCC(=O)NC8=O)C9=O)CC7)CC6)cc5)CC4)cn3c2=O)c1)C1CCC1` (single isomer, unassigned) [Compound 210], the DC50 under setting [1] was < 0.03 µM. The Dmax under setting [2] was > 70%.

For the compound `CN(CCN(C)C(=O)c1ccc(C2CCN(c3ccc4c(c3)CN([C@@H]3CCC(=O)NC3=O)C4=O)CC2)cc1)Cc1cc(C(F)(F)F)c2cn(-c3cccc([C@H](c4nncn4C)C4CCC4)c3)c(=O)n2c1` (single isomer, unassigned) [Compound 211], the DC50 under setting [1] was > 10 µM. In addition, the Dmax under setting [2] was < 30%.

Turning to `CN(CCN(C)C(=O)c1ccc(C2CCN(c3ccc4c(c3)CN([C@H]3CCC(=O)NC3=O)C4=O)CC2)cc1)Cc1cc(C(F)(F)F)c2cn(-c3cccc([C@H](c4nncn4C)C4CCC4)c3)c(=O)n2c1` (single isomer, unassigned) [Compound 212], under setting [1], the DC50 was > 10 µM. Also, under setting [2], the greatest degradation seen (Dmax) was < 30%.

As for `Cn1cnnc1[C@@H](c1cccc(-n2cc3c(C(F)(F)F)cc(CN4CCC(OCc5ccc(C6CCN(c7ccc8c(c7)CN([C@@H]7CCC(=O)NC7=O)C8=O)CC6)cc5)CC4)cn3c2=O)c1)C1CCC1` (single isomer, unassigned) [Compound 213], the DC50 under setting [1] is > 10 µM. For the same compound, the Dmax under setting [2] was < 30%.

Under setting [1], `Cn1cnnc1[C@@H](c1cccc(-n2cc3c(C(F)(F)F)cc(CN4CCC(OCc5ccc(C6CCN(c7ccc8c(c7)CN([C@H]7CCC(=O)NC7=O)C8=O)CC6)cc5)CC4)cn3c2=O)c1)C1CCC1` (single isomer, unassigned) [Compound 214] had a DC50 of 0.03 to 0.3 µM. The Dmax under setting [2] is 30 to 50%.

As for `Cn1cnnc1[C@@H](c1cccc(-n2cc3c(C(F)(F)F)cc(CN4CCC(OCc5ccc(CC6CCN(c7ccc8c(c7)CN([C@@H]7CCC(=O)NC7=O)C8=O)CC6)cc5)CC4)cn3c2=O)c1)C1CCC1` (single isomer, unassigned) [Compound 217], the 50% degradation concentration (DC50) under setting [1] lay in the range of 0.3 to 1 µM. The Dmax under setting [2] lay within 30 to 50%.

In the case of `Cn1cnnc1[C@@H](c1cccc(-n2cc3c(C(F)(F)F)cc(CN4CCC(OCc5ccc(CC6CCN(c7ccc8c(c7)CN([C@H]7CCC(=O)NC7=O)C8=O)CC6)cc5)CC4)cn3c2=O)c1)C1CCC1` (single isomer, unassigned) [Compound 218], the DC50 under setting [1] was < 0.03 µM. For the same compound, the maximal degradation (Dmax) under setting [2] was > 70%.

In turn, `Cn1cnnc1CC1(c2cccc(-n3cc4c(C(F)(F)F)cc(CN5CCC(OCCOCc6ccc(CN7CCN(c8ccc9c(c8)CN([C@@H]8CCC(=O)NC8=O)C9=O)CC7)cc6)CC5)cn4c3=O)c2)COC1` (single isomer, unassigned) [Compound 219] came in with a DC50 under setting [1] of 0.03 to 0.3 µM. Under setting [2], the Dmax is 50 to 70%.

As for `Cn1cnnc1CC1(c2cccc(-n3cc4c(C(F)(F)F)cc(CN5CCC(OCCOCc6ccc(CN7CCN(c8ccc9c(c8)CN([C@H]8CCC(=O)NC8=O)C9=O)CC7)cc6)CC5)cn4c3=O)c2)COC1` (single isomer, unassigned) [Compound 220], the DC50 under setting [1] is < 0.03 µM. Besides, the Dmax under setting [2] was > 70%.

Compound `Cn1cnnc1[C@@H](c1cccc(-n2cc3c(C(F)(F)F)cc(CN4CCC(O[C@@H]5CCCN(C(=O)c6ccc(N7CCN(c8ccc9c(c8)CN([C@@H]8CCC(=O)NC8=O)C9=O)CC7)cc6)C5)CC4)cn3c2=O)c1)C1CCC1` (single isomer, unassigned) [Compound 225] registered a DC50 under setting [1] of 1 to 10 µM. Also, the Dmax under setting [2] was in the range of 30 to 50%.

Compound `Cn1cnnc1[C@@H](c1cccc(-n2cc3c(C(F)(F)F)cc(CN4CCC(O[C@@H]5CCCN(C(=O)c6ccc(N7CCN(c8ccc9c(c8)CN([C@H]8CCC(=O)NC8=O)C9=O)CC7)cc6)C5)CC4)cn3c2=O)c1)C1CCC1` (single isomer, unassigned) [Compound 226] came in with a DC50 under setting [1] of 0.03 to 0.3 µM. Moreover, under setting [2], the Dmax is > 70%.

Turning to `Cn1cnnc1[C@@H](c1cccc(-n2cc3c(C(F)(F)F)cc(CN4CCN(CCc5ccc(C6CCN(c7ccc8c(c7)CN([C@H]7CCC(=O)NC7=O)C8=O)CC6)cc5)CC4)cn3c2=O)c1)C1CCC1` (single isomer, unassigned) [Compound 228], the DC50 under setting [1] is < 0.03 µM. Further, under setting [2], the Dmax is > 70%.

Under setting [1], `CO[C@H]1C[C@](c2cccc(-n3cc4c(C(F)(F)F)cc(CN5CCC(OCc6ccc(CN7CCN(c8ccc9c(c8)CN([C@@H]8CCC(=O)NC8=O)C9=O)CC7)cc6)CC5)cn4c3=O)c2)(c2nncn2C)C1` (single isomer, unassigned) [Compound 231] returned a DC50 of 0.3 to 1 µM. Further, the Dmax under setting [2] fell in the range of 30 to 50%.

With `CO[C@H]1C[C@](c2cccc(-n3cc4c(C(F)(F)F)cc(CN5CCC(OCc6ccc(CN7CCN(c8ccc9c(c8)CN([C@H]8CCC(=O)NC8=O)C9=O)CC7)cc6)CC5)cn4c3=O)c2)(c2nncn2C)C1` (single isomer, unassigned) [Compound 232], the DC50 under setting [1] is < 0.03 µM. Further, the Dmax under setting [2] was > 70%.

Take `Cn1cnnc1[C@@H](c1cccc(-n2cc3c(C(F)(F)F)cc(CN4CCC[C@@H](COCc5ccc(CN6CCN(c7ccc8c(c7)CN([C@H]7CCC(=O)NC7=O)C8=O)CC6)cc5)C4)cn3c2=O)c1)C1CCC1` (single isomer, unassigned) [Compound 234]: the Dmax (THP-1) was > 70%.

`Cn1cnnc1CC1(c2cccc(-n3cc4c(C(F)(F)F)cc(CN5CCC[C@@H](OCCc6ccc(CN7CCN(c8ccc9c(c8)CN([C@@H]8CCC(=O)NC8=O)C9=O)CC7)cc6)C5)cn4c3=O)c2)COC1` (single isomer, unassigned) [Compound 239] displayed a DC50 under setting [1] of 0.03 to 0.3 µM. The Dmax under setting [2] was 50 to 70%.

Consider `Cn1cnnc1CC1(c2cccc(-n3cc4c(C(F)(F)F)cc(CN5CCC[C@@H](OCCc6ccc(CN7CCN(c8ccc9c(c8)CN([C@H]8CCC(=O)NC8=O)C9=O)CC7)cc6)C5)cn4c3=O)c2)COC1` (single isomer, unassigned) [Compound 240], for which the half-maximal degradation concentration (DC50) under setting [1] was < 0.03 µM. Also, the Dmax under setting [2] is > 70%.

Under setting [1], `Cn1cnnc1CC1(c2cccc(-n3cc4c(C(F)(F)F)cc(CN5CCC(OCc6ccc(C(=O)N7CCN(c8ccc9c(c8)CN([C@@H]8CCC(=O)NC8=O)C9=O)CC7)cc6)CC5)cn4c3=O)c2)COC1` (single isomer, unassigned) [Compound 243] came in with a DC50 of 0.03 to 0.3 µM. The Dmax under setting [2] is > 70%.

As to `Cn1cnnc1CC1(c2cccc(-n3cc4c(C(F)(F)F)cc(CN5CCC(OCc6ccc(C(=O)N7CCN(c8ccc9c(c8)CN([C@H]8CCC(=O)NC8=O)C9=O)CC7)cc6)CC5)cn4c3=O)c2)COC1` (single isomer, unassigned) [Compound 244], the DC50 under setting [1] is < 0.03 µM. Also, the Dmax under setting [2] is > 70%.

Compound `CN(C(=O)c1ccc(CN2CCN(c3ccc4c(c3)CN([C@@H]3CCC(=O)NC3=O)C4=O)CC2)cc1)C1CCN(Cc2cc(C(F)(F)F)c3cn(-c4cccc(C5(Cc6nncn6C)COC5)c4)c(=O)n3c2)CC1` (single isomer, unassigned) [Compound 245] had a DC50 under setting [1] of 0.3 to 1 µM. For the same compound, the Dmax under setting [2] was in the range of 30 to 50%.

As to `CN(C(=O)c1ccc(CN2CCN(c3ccc4c(c3)CN([C@H]3CCC(=O)NC3=O)C4=O)CC2)cc1)C1CCN(Cc2cc(C(F)(F)F)c3cn(-c4cccc(C5(Cc6nncn6C)COC5)c4)c(=O)n3c2)CC1` (single isomer, unassigned) [Compound 246], under setting [1], the DC50 was < 0.03 µM. In addition, the Dmax under setting [2] was > 70%.

For `Cn1cnnc1[C@@H](c1cccc(-n2cc3c(C(F)(F)F)cc(CN4CCC(O[C@H]5CCCN(C(=O)c6ccc(N7CCN(c8ccc9c(c8)CN([C@@H]8CCC(=O)NC8=O)C9=O)CC7)cc6)C5)CC4)cn3c2=O)c1)C1CCC1` (single isomer, unassigned) [Compound 247], the 50% degradation concentration (DC50) under setting [1] lay within 0.3 to 1 µM. The Dmax under setting [2] is 30 to 50%.

`Cn1cnnc1[C@@H](c1cccc(-n2cc3c(C(F)(F)F)cc(CN4CCC(O[C@H]5CCCN(C(=O)c6ccc(N7CCN(c8ccc9c(c8)CN([C@H]8CCC(=O)NC8=O)C9=O)CC7)cc6)C5)CC4)cn3c2=O)c1)C1CCC1` (single isomer, unassigned) [Compound 248]: the DC50 under setting [1] was < 0.03 µM. Further, the Dmax under setting [2] was > 70%.

Compound `Cn1cnnc1CC1(c2cccc(-n3cc4c(C(F)(F)F)cc(CN5CCC(OCc6ccc(N7CCN(c8ccc9c(c8)CN([C@@H]8CCC(=O)NC8=O)C9=O)CC7)cc6)CC5)cn4c3=O)c2)COC1` (single isomer, unassigned) [Compound 249] showed a DC50 under setting [1] of 0.03 to 0.3 µM. Moreover, under setting [2], the Dmax was 30 to 50%.

With `Cn1cnnc1CC1(c2cccc(-n3cc4c(C(F)(F)F)cc(CN5CCC(OCc6ccc(N7CCN(c8ccc9c(c8)CN([C@H]8CCC(=O)NC8=O)C9=O)CC7)cc6)CC5)cn4c3=O)c2)COC1` (single isomer, unassigned) [Compound 250], the DC50 under setting [1] is < 0.03 µM. Under setting [2], the Dmax is 50 to 70%.

With `Cn1cnnc1[C@@H](c1cccc(-n2cc3c(C(F)(F)F)cc(CN4CCC(OC(=O)N5CCC(CC6CCN(c7ccc8c(c7)CN([C@@H]7CCC(=O)NC7=O)C8=O)CC6)CC5)CC4)cn3c2=O)c1)C1CCC1` (single isomer, unassigned) [Compound 253], the DC50 under setting [1] is 0.03 to 0.3 µM. For the same compound, the Dmax under setting [2] was 50 to 70%.

Regarding `Cn1cnnc1[C@@H](c1cccc(-n2cc3c(C(F)(F)F)cc(CN4CCC(OC(=O)N5CCC(CC6CCN(c7ccc8c(c7)CN([C@H]7CCC(=O)NC7=O)C8=O)CC6)CC5)CC4)cn3c2=O)c1)C1CCC1` (single isomer, unassigned) [Compound 254], under setting [1], the DC50 was < 0.03 µM. Further, the Dmax under setting [2] is > 70%.

These data come from patent publication US20250340552A1, “COMPOUNDS, COMPOSITIONS AND METHODS OF TREATING DISORDERS” (HOTSPOT THERAPEUTICS, INC., priority 2022, published 2025).
